Among the targets are JNK1 (Homo sapiens, UniProt P45983); CSK (Homo sapiens, UniProt P41240); SYK (Homo sapiens, UniProt P43405).
Test in all cases: Kinase profile (33P ATP filter binding)
What all share (type): biochemical

A further assay deals with T1, IKKb (Homo sapiens, UniProt O14920).
T1 sequence (O14920 1-756): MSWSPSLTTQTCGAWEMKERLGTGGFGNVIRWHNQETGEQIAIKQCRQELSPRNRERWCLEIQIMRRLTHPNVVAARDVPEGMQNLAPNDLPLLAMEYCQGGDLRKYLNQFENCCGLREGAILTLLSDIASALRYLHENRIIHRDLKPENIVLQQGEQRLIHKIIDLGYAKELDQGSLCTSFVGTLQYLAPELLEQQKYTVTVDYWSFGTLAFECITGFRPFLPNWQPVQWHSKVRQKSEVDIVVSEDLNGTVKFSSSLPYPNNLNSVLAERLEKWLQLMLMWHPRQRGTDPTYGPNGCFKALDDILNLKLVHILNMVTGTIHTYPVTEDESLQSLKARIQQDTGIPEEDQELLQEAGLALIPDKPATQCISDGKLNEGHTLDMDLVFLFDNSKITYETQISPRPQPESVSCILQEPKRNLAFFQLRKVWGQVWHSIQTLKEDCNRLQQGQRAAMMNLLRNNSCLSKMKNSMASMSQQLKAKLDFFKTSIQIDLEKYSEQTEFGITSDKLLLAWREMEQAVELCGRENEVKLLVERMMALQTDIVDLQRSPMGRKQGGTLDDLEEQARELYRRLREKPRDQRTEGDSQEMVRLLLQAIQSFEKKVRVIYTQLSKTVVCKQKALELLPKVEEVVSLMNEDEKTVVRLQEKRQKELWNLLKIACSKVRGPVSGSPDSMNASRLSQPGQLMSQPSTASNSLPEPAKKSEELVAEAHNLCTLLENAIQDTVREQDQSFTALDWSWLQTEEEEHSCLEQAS
As to conditions: read-out: Remaining protein kinase activity.

In another assay the target is MAP4K5 (Homo sapiens, UniProt Q9Y4K4). As to conditions: read-out: Remaining protein kinase activity.
Sequence of MAP4K5 (Q9Y4K4 whole entry): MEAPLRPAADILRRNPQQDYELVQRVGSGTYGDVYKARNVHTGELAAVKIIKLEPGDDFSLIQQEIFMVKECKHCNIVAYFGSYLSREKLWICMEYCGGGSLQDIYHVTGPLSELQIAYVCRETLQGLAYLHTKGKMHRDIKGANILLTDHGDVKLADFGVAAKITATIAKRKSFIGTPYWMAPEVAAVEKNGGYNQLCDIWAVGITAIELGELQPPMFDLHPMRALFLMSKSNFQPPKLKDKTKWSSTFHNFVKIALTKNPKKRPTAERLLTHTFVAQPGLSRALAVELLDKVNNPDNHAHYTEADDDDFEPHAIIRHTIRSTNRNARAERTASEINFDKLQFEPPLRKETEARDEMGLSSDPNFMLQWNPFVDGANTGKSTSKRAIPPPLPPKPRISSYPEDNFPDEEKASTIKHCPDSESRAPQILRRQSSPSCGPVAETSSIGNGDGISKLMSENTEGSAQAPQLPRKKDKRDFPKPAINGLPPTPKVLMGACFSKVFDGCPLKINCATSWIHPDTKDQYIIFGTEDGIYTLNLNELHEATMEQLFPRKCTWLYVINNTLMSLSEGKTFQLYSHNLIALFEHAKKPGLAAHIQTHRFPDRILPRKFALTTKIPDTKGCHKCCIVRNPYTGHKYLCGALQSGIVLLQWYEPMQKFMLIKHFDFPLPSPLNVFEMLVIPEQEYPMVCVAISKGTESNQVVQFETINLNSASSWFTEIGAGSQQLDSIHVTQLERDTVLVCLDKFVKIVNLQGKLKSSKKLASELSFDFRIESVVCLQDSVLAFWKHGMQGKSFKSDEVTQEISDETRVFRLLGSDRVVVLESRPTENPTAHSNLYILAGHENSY
Another assay addresses STK33 (Homo sapiens, UniProt Q9BYT3). The conditions noted are these: read-out: Remaining protein kinase activity.
In the next assay the target is ERK1 (Homo sapiens, UniProt P27361). The conditions noted are these: read-out: Remaining protein kinase activity.
Sequence of ERK1 (P27361 whole entry, species assumed): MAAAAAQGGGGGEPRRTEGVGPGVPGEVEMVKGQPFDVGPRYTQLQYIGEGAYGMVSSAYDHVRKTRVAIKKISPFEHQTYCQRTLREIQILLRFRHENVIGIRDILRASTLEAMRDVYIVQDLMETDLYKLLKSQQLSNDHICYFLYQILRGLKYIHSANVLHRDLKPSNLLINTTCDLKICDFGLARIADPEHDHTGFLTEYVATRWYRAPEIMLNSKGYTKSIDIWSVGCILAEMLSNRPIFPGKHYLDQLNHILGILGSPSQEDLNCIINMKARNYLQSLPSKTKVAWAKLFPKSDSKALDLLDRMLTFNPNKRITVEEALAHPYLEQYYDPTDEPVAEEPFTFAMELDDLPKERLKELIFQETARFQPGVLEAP
The target of another assay is ERK5 (Homo sapiens, UniProt Q13164). The conditions noted are these: read-out: Remaining protein kinase activity.
Sequence of ERK5 (Q13164 whole entry, species assumed): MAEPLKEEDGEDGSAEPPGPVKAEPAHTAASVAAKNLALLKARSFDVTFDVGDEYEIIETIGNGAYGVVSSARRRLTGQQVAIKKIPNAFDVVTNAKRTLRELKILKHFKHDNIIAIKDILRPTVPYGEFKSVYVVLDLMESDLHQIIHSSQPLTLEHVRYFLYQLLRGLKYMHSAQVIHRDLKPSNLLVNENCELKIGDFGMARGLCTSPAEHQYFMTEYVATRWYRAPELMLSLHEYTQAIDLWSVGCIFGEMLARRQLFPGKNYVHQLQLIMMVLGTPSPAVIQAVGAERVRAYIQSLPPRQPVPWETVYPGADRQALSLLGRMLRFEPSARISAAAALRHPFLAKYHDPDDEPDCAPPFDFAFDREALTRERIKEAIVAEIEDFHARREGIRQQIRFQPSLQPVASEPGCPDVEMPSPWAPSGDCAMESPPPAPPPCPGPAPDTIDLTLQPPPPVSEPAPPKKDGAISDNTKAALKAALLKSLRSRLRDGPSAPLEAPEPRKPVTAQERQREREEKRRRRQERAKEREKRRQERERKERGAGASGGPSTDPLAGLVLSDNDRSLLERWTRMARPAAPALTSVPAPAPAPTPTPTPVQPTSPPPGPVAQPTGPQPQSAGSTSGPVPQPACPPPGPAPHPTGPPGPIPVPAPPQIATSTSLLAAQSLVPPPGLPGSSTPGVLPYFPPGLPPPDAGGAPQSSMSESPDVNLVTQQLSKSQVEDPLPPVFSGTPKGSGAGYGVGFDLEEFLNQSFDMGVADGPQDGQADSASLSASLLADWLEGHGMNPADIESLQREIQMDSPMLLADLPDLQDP
The next assay addresses RSK2 (Homo sapiens, UniProt P51812). The conditions noted are these: read-out: Remaining protein kinase activity.

The structures appear in SMILES notation. Like-named read-outs stand apart in the source and are kept apart here.

Sequence of STK33 (Q9BYT3 whole entry): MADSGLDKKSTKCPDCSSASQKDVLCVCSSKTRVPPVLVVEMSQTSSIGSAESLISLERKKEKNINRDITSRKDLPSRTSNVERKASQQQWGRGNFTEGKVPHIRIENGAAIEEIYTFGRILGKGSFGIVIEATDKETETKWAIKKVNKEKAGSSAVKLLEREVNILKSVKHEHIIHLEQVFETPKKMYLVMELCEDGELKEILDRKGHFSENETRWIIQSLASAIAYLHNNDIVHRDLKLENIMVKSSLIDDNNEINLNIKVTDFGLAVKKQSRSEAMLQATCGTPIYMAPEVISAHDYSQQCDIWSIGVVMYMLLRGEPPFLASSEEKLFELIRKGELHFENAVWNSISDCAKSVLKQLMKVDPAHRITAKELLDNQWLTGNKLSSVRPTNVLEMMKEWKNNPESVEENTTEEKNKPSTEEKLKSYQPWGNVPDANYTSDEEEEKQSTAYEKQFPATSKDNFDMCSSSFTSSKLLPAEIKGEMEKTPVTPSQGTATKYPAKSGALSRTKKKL
Sequence of CSK (P41240 whole entry): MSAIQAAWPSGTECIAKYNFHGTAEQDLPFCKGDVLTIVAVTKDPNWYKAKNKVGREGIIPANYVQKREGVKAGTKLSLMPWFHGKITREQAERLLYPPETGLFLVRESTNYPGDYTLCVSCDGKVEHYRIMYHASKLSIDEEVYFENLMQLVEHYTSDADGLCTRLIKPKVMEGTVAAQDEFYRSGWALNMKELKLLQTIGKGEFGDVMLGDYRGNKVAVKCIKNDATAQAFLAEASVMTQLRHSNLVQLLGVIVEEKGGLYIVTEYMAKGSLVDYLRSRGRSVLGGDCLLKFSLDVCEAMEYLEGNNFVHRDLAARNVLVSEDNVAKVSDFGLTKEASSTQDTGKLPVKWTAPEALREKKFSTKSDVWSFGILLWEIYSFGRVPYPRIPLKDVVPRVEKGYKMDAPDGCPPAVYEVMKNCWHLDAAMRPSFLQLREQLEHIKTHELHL
Sequence of RSK2 (P51812 whole entry, species assumed): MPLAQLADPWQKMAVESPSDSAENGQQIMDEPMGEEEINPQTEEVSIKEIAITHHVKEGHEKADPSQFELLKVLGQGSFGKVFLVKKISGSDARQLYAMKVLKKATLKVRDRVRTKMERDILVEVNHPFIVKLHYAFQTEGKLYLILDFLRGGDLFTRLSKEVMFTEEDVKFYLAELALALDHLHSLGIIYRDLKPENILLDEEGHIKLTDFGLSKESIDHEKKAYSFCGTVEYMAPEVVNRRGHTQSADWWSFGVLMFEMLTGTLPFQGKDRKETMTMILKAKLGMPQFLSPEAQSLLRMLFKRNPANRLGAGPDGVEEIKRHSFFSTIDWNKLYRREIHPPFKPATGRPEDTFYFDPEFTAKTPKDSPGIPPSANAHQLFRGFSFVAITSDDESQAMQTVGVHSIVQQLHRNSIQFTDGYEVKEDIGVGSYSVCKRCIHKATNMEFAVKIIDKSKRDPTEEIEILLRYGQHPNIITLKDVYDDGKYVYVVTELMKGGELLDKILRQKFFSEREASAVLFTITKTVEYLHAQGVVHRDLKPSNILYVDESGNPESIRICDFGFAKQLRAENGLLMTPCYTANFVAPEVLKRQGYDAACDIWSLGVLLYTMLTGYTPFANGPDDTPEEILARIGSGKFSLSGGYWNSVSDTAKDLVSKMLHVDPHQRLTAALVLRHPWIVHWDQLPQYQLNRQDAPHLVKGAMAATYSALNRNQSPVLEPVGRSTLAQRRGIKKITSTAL
Sequence of JNK1 (P45983 whole entry, species assumed): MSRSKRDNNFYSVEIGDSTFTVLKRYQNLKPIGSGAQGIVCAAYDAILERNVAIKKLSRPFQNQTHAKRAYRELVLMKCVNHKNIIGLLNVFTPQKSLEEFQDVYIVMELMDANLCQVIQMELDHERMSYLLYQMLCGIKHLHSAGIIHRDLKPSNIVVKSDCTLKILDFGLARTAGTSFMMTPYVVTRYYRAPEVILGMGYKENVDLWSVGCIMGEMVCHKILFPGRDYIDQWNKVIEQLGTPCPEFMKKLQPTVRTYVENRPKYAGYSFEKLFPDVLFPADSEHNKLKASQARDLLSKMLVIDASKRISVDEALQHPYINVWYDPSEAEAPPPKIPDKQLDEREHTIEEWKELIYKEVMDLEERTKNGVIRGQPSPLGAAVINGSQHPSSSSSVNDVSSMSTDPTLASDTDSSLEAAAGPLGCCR

On to `COc1ccc2sc(-c3cncc(NC(C)=O)c3)nc2c1` [PST-001, N-(5-(5-Methoxybenzo[d]thiazol-2-yl)pyridin-3-yl)acetamide], for which the remaining activity at 1 µM was found to be 111% on IKKb; 82% on MAP4K5; 113% on STK33; 109% at ERK1; 72% at ERK5; 113% at RSK2. In addition, the remaining activity at 100 µM at IKKb turned out to be 108%; at MAP4K5, 92%; at STK33 it was 112%; at ERK1, 108%; on ERK5 it was 51%; on RSK2 it was 100%. Moreover, the “Remaining protein kinase activity” value at JNK1 (1 μM) came to 113%; at JNK1 (100 μM), 130%; at CSK (1 μM), 121%; on CSK (100 μM) it was 126%; at SYK (1 μM), 112%; on SYK (100 μM), 58%.

Regarding `COc1ccc2sc(-c3cncc(N)c3)nc2c1` [compound 1, 5-(5-Methoxybenzo[d]thiazol-2-yl)pyridin-3-amine], the remaining activity at 1 µM on IKKb (IKKb, 1 μM) was determined as 105%; on MAP4K5 (MAP4K5, 1 μM) it was 106%; on STK33 (STK33, 1 μM), 111%; at ERK1 (ERK1, 1 μM), 99%; on ERK5 (ERK5, 1 μM) it was 66%; on RSK2 (RSK2, 1 μM) it was 115%. Further, the remaining activity at 100 µM at IKKb (IKKb, 100 μM) came to 38%; on MAP4K5 (MAP4K5, 100 μM) it was 61%; on STK33 (STK33, 100 μM), 57%; on ERK1 (ERK1, 100 μM) it was 81%; on ERK5 (ERK5, 100 μM) it was 37%; on RSK2 (RSK2, 100 μM) it was 56%. Moreover, the “Remaining protein kinase activity” value worked out at 112% at JNK1 (1 μM); 94% at JNK1 (100 μM); 116% on CSK (1 μM); 78% on CSK (100 μM); 113% on SYK (1 μM); 38% at SYK (100 μM).

The values above are taken from paper PMC8617627, “Novel DYRK1A Inhibitor Rescues Learning and Memory Deficits in a Mouse Model of Down Syndrome” (Pharmaceuticals, 2021).
